The source of these data is US8642794B1, “Biosurfactant compounds produced by Aureobasidium pullulans” (Gyeongbuk Institute for Marine Bio-industry, priority 2012, dated 2014).

The nature of the series: Surface tension measurement with a tensiometer (Sigma 700), aqueous solution dropped onto a hydrophobic film. The following applies: at 1.0 mg/liter; water as control. Type of series: physicochemical. As for the experimental part: The compounds L3-E3 and L3-E6 isolated in Examples 2 and 4, respectively, were dropped onto the surface of a hydrophobic film, and their surface tension was measured by using a tensiometer (Sigma 700 Tensiometer, KSV Instruments Ltd., Finland). Here, water was used as a control, and the change in surface tension was measured by using a microbial culture, L3-E3 and L3-E6.

Compound `CCCCCC(O)CC(O)CC(=O)OC(CCCCC)CCCC(=O)OC` (centres unmarked) [L3-E6] yielded a surface tension of 36.4 dyne/cm.
`CCCCCC(O)CC(O)CC(=O)OC(CCCCC)CC(O)CC(=O)OC` (centres unmarked) [L3-E3] came in with a surface tension of 29.5 dyne/cm.
